Source: patent publication US7855228B2, “Antibiotics targeting MreB” (The Board of Trustees of the Leland Stamford Junior …, priority 2005, dated 2010)
In brackets after ≈: the same amount, converted by molar mass. Like-named read-outs stand apart in the source and are kept apart here.

How the values were obtained:
E. coli MG1655 [1] = test: Microscopic observation of cell shape; assay type: cell-based; conditions: for Effect on E. coli cell morphology (in words): 3×MIC or 300 μg/ml, 16 hrs
In short: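 E. coli K-12 MG1655 grown in Lennox broth with 0.1% glucose (pH 7.2), exposed to compound, methanol-fixed 5 min and examined by differential interference contrast microscopy. Anucleate cells scored after DAPI staining (5 μg/ml) using combined fluorescence phase-contrast.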

E. coli MG1655 [2] = test: Determination of minimum inhibitory concentration (MIC); assay type: cell-based; conditions: Escherichia coli, read-out: MIC E. coli
In short: (§1)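 Two-fold serial agar dilution on L agar and also on Mueller Hinton agar (pH 7.3); 10 µl of stationary-phase culture diluted in 0.85% NaCl to 10^6 cells/ml spotted per plate. MIC taken as lowest concentration inhibiting growth.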

[3] = tested on: E. coli K-12 strains (ponB, mreB alleles); test: MICs of mecillinam and A22 for E. coli K-12 strains; assay type: cell-based; conditions: for MIC: Escherichia coli
Procedure: Determination of MIC Minimal inhibitory concentrations (MICs) were determined using a standard 2-fold serial dilution format on L agar plates. Ten microliters of stationary culture diluted in 0.85% NaCl to 10^6 cells/ml were spotted on per plate. […] MICs were also determined on Mueller Hinton agar plates (0.2% beef extract, 1.75% acid digest of casein, 0.15% soluble starch, 1.5% agar, pH 7.3).

E. coli JE1011, JST975 = test: Paper disk growth inhibitory zone; assay type: cell-based; conditions: paper disk φ 8 mm, 200 μg of A22, 24 h, 37° C.
Procedure: Isolation of A22-resistant mutant Our strategy for identifying the molecular target(s) of A22 involved isolating resistant mutants which grow in the presence of concentrations of A22 that inhibit growth of the parent strain. After 24 h incubation at 37° C., E. coli strains such as JE1011 formed a turbid growth inhibitory zone (φ 12 mm) around a paper disk (φ 8 mm) containing 200 μg of A22. To identify a more suitable parent strain for our selection, we screened for a more drug-sensitive strain that would form clear growth inhibitory zones under similar incubation conditions.
Bacterial strains used E. coli K-12 strains JE1011 (F^− leuB thr trp his thy ara lac xyl mtl rpsL tonA), JST975 (the same as JE1011 but ponB) (Tamaki et al. 1977), W3110 (wild-type), MG1655 (wild-type), DV14 (F^− metB1 panD2 panF1 zhc-12::Tn10) (Vallari & Rock 1985), CAG12149 (F^− zbd-601::Tn10) (Singer et al. 1989), AT1325-678 (F^− lip-9 thi-1 his-4 purB15 proA2 mtl-1 Δmre678) (Wachi et al. 1987) and JM109 [recA1 endA1 gyrA96 thi-1 hsdR17 Δ(lac-proAB) supE44 relA1 F′ (traD36 proAB^+ lacI^q lacZΔM15)] (Yanisch-Perron et al. 1985) were used in this study. Cells were grown in Lennox (L) medium (1% Bactopeptone, 0.5% yeast extracts, 0.5% NaCl, 0.1% glucose, pH 7.2, supplemented with 20 μg/ml thymine). For the growth of AT1325-678, 0.1 μg/ml lipoic acid was supplemented. […]

B. subtilis 168 = test: Determination of minimum inhibitory concentration (MIC); assay type: cell-based, Bacillus subtilis; conditions: read-out: MIC B. subtilis
In short: as §1

N=C(N)SCc1ccc(Cl)c(Cl)c1 [Compound 1, S-(3,4-dichlorobenzyl)isothiourea]
Effect on E. coli cell morphology (in words) (E. coli MG1655 [1]; 30° C.): induced a spherical cell shape
Effect on E. coli cell morphology (in words) (E. coli MG1655 [1]; 30° C., listed as A22): induced spherical cells
Shape (E. coli MG1655 [1]; E. coli MG1655 treated at 3×MIC (*), 30° C., 16 h): Sphere*
Shape (E. coli MG1655 [1]; Example 2, methods as in Example 1): Sphere
MIC (E. coli MG1655 [2]; MG1655, Example 2, methods as in Example 1): 3.13 µg/mL (≈ 13.3 µM)
MIC (E. coli MG1655 [2]; MG1655, Table 1, E. coli MG1655): 3.13 µg/mL (≈ 13.3 µM)
MIC ([3]; read-out: MICs, strain JA221 (ponB −, mreB221)): 100 µg/mL (≈ 425 µM)
MIC ([3]; read-out: MICs, strain JE1011 (ponB +, mreB +)): 6.25 µg/mL (≈ 26.6 µM)
MIC ([3]; read-out: MICs, strain JM109/pMW218 (ponB +, mreB +/−)): 6.25 µg/mL (≈ 26.6 µM)
MIC ([3]; read-out: MICs, strain JM109/pMreB1 (ponB +, mreB +/+)): 25 µg/mL (≈ 106 µM)
MIC ([3]; read-out: MICs, strain JM109/pMreB221 (ponB +, mreB +/mreB221)): 100 µg/mL (≈ 425 µM)
MIC ([3]; read-out: MICs, strain JST975 (ponB −, mreB +)): 1.6 µg/mL (≈ 6.8 µM)
MIC ([3]; read-out: MICs, strain JSTA220 (ponB −, mreB +)): 3.12 µg/mL (≈ 13.3 µM)
MIC ([3]; read-out: MICs, strain JSTA221 (ponB −, mreB221)): 100 µg/mL (≈ 425 µM)
MIC ([3]; read-out: MICs, strain WA220 (ponB +, mreB +)): 6.25 µg/mL (≈ 26.6 µM)
MIC ([3]; read-out: MICs, strain WA221 (ponB +, mreB221)): > 100 µg/mL
MICs ([3]; strain JST975 (ponB −, mreB +), listed as A22): 3.125 µg/mL
Growth inhibitory zone (turbid) (E. coli JE1011, JST975; JE1011): 12 mm
Growth inhibitory zone (clear) (E. coli JE1011, JST975; JST975 (ponB)): 32 mm
MIC (B. subtilis 168; Bacillus subtilis, 168, Example 2, methods as in Example 1): 100 µg/mL (≈ 425 µM)
MIC (B. subtilis 168; Bacillus subtilis, 168, Table 1, B. subtilis 168): 100 µg/mL (≈ 425 µM)
